The subject of experiment [1] is NF-kB-dependent TNF-α secretion. In words: TNF-α secretion assay in THP-1 cells (counter screen, HTRF). In kind it is cell-based. Conditions: Pam3CSK4-stimulated, 3 hours. In a few lines: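 THP-1 cells were treated with compound, then stimulated with 1 μg/mL LPS or 100 ng/mL Pam3CSK4 for 3 h. Secreted TNF-α in supernatant was measured by HTRF, with viability monitored in parallel. IC50 from logistic fit of % inhibition versus concentration with Hill coefficient.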
On the technique in general: A counterscreen serves to expose hits that act by an unwanted route or on another target.

For a further experiment, the system named is NLRP3 inflammasome. As to the kind of experiment: IL-1β secretion assay in PMA-differentiated THP-1 cells, nigericin-activated (HTRF). It counts as cell-based. On the procedure: 10 μL supernatant was removed, and IL-1p levels were monitored using an HTRF assay (CisBio, #621L1PEC) according to manufacturers' instructions. Viability and pyroptosis was monitored with the addition of PrestoBlue cell viability reagent (Life Technologies, #A13261) directly to the cell culture plate.
IC50 values were calculated from the plot of percentage of inhibition versus the inhibitor concentration by a logistics fit according to: y=A2+(A1−A2)/(1+(x/IC50)^p) where y is the %-inhibition at the inhibitor concentration, x. A1 is the lowest inhibition value, i.e. 0%, and A2 the maximum inhibition value, i.e. 100%. The exponent, p, is the Hill coefficient. The curve fitting was conducted with an internally developed software suite.
NLRP3-dependent IL-1β secretion was stimulated in PMA-differentiated THP-1 cells by the addition of nigericin, and cytokines were measured in the […] after 3 hours. As discussed above, activation of the NLRP3 inflammasome requires both an NF-kB-dependent priming step and the addition of a NLRP3 activator.

Setting [2] is: Homo sapiens, 15 μM nigericin, 3 hours, read-out: IL-1β IC50.
The mark [3] stands for this setting: read-out: IL-1β IC50, 15 μM nigericin, 3 hours.

Experimental findings from patent US11208399B2, “NLRP3 inflammasome inhibitors” (Novartis AG, priority 2019, dated 2021) are described below.

Molecules are shown by their SMILES. pIC50: −log10 of the molar value. Where a name gives a salt, the structure may show the parent alone. Read-outs that look alike come from different tables or passages of the source.

Take `Cc1cc(C(F)(F)F)cc(O)c1-c1ccc(NC[C@@H]2C[C@@H](F)CN2)nn1` [Ex 76, 2-(6-((((2S,4R)-4-Fluoropyrrolidin-2-yl)methyl)amino)pyridazin-3-yl)-3-methyl-5-(trifluoromethyl)phenol]: the pIC50 (as a rule, −log10 of the IC50, conventionally taken in molar units) is less than 4.00 in experiment [1] (Homo sapiens) and 7.05 with NLRP3 inflammasome (setting [2]).

With `Cc1cc(C(F)(F)F)cc(O)c1-c1ccc(NC[C@](C)(O)C(F)(F)F)nn1` [Ex 78, (S)-3-Methyl-2-(6-((3,3,3-trifluoro-2-hydroxy-2-methylpropyl)amino)pyridazin-3-yl)-5-(trifluoromethyl)phenol HCl-salt], the pIC50 was less than 4.00 in experiment [1] (Homo sapiens) and 6.70 in the experiment on NLRP3 inflammasome (setting [2]).

As for `Cc1cc(C(F)(F)F)cc(O)c1-c1ccc(NC(C)(C)CO)nn1` [Ex 79, 2-(6-((1-Hydroxy-2-methylpropan-2-yl)amino)pyridazin-3-yl)-3-methyl-5-(trifluoromethyl)phenol], the pIC50 in experiment [1] (Homo sapiens) was less than 4.00; with NLRP3 inflammasome (setting [2]) it was 6.43.

For the compound `Cc1cc(N[C@H]2C[C@@](C)(O)C2)nnc1-c1ccc(OC(F)(F)F)cc1O` [Ex 81, 2-(6-(((cis)-3-Hydroxy-3-methylcyclobutyl)amino)-4-methylpyridazin-3-yl)-5-(trifluoromethoxy)phenol], the values for the negative logarithm of the IC50 (pIC50) (in experiment [1] (Homo sapiens); with NLRP3 inflammasome (setting [2])) were less than 4.00 and 6.89, respectively.

Take `Cc1cc(C(F)(F)F)cc(O)c1-c1ccc(N[C@@H]2CCCN3CCC[C@H]23)nn1` [Ex 83a, 3-Methyl-2-(6-(((8R,8aR)-octahydroindolizin-8-yl)amino)pyridazin-3-yl)-5-(trifluoromethyl) phenol]: the values for the pIC50 (in experiment [1] (Homo sapiens); with NLRP3 inflammasome (setting [2])) were less than 4.00 and 9.10, respectively.

As for `Cc1cc(C(F)(F)F)cc(O)c1-c1ccc(N[C@H]2CCCN3CCC[C@@H]23)nn1` [Ex 83b, 3-Methyl-2-(6-(((8S,8aS)-octahydroindolizin-8-yl)amino)pyridazin-3-yl)-5-(trifluoromethyl) phenol], the pIC50 in experiment [1] (Homo sapiens) was less than 4.00; in the experiment with NLRP3 inflammasome (setting [2]), 7.16.

Consider `Cc1cc(C(F)(F)F)cc(O)c1-c1ccc(NC[C@H]2CCCCN2CCO)nn1` [Ex 84a, (R)-2-(6-(((1-(2-Hydroxyethyl)piperidin-2-yl)methyl)amino)pyridazin-3-yl)-3-methyl-5-(trifluoromethyl)phenol], for which the pIC50 in experiment [1] (Homo sapiens) was less than 4.00; in the experiment on NLRP3 inflammasome (setting [2]), 7.37.

Consider `Cc1cc(C(F)(F)F)cc(O)c1-c1ccc(NC[C@@H]2CCCCN2CCO)nn1` [Ex 84b, (S)-2-(6-(((1-(2-Hydroxyethyl)piperidin-2-yl)methyl)amino)pyridazin-3-yl)-3-methyl-5-(trifluoromethyl)phenol], for which the pIC50 in experiment [1] (Homo sapiens) is less than 4.48; with NLRP3 inflammasome (setting [2]), 7.27.

On to `Cc1cc(C(F)(F)F)cc(O)c1-c1ccc(N[C@@H]2CC[C@@H]3CC[C@H]2N3C)nn1` [Ex 85b, 3-Methyl-2-(6-(((1R,2R,5R)-8-methyl-8-azabicyclo[3.2.1]octan-2-yl)amino)pyridazin-3-yl)-5-(trifluoromethyl)phenol], for which the pIC50 in experiment [1] was less than 4.00; in the experiment on NLRP3 inflammasome (setting [3]), 8.89.

`Cc1cc(C(F)(F)F)cc(O)c1-c1ccc(N[C@@H]2CC[C@@H]3CC[C@H]2N3CCO)nn1` [Ex 86b, 2-(6-(((1R,2R,5R)-8-(2-Hydroxyethyl)-8-azabicyclo[3.2.1]octan-2-yl)amino)pyridazin-3-yl)-3-methyl-5-(trifluoromethyl)phenol]: the values for the pIC50 (in experiment [1]; with NLRP3 inflammasome (setting [3])) were less than 4.00 and 8.74, respectively.

For `Cc1cc(C(F)(F)F)cc(O)c1-c1ccc(NC[C@](C)(O)CO)nn1` [Ex 88a, (S)-3-((6-(2-Hydroxy-6-methyl-4-(trifluoromethyl)phenyl)pyridazin-3-yl)amino)-2-methylpropane-1,2-diol], the pIC50 in experiment [1] (Homo sapiens) was 4.39; in the experiment with NLRP3 inflammasome (setting [2]), 7.21.

For `Cc1cc(C(F)(F)F)cc(O)c1-c1ccc(NC[C@@](C)(O)CO)nn1` [Ex 88b, (R)-3-((6-(2-Hydroxy-6-methyl-4-(trifluoromethyl)phenyl)pyridazin-3-yl)amino)-2-methylpropane-1,2-diol], the pIC50 in experiment [1] (Homo sapiens) is less than 4.00; in the experiment on NLRP3 inflammasome (setting [2]), 7.22.

As to `Cc1cc(C(F)(F)F)cc(O)c1-c1ccc(N[C@H]2CC[C@H](O)[C@@H]2O)nn1` [Ex 89a, (1S,2R,3S)-3-((6-(2-Hydroxy-6-methyl-4-(trifluoromethyl)phenyl)pyridazin-3-yl)amino) cyclopentane-1,2-diol], the pIC50 was less than 4.00 in experiment [1] (Homo sapiens) and 7.22 in the experiment with NLRP3 inflammasome (setting [2]).

For `Cc1cc(C(F)(F)F)cc(O)c1-c1ccc(N[C@@H]2CC[C@@H](O)[C@H]2O)nn1` [Ex 89b, (1R,2S,3R)-3-((6-(2-Hydroxy-6-methyl-4-(trifluoromethyl)phenyl)pyridazin-3-yl)amino)cyclopentane-1,2-diol], the pIC50 in experiment [1] (Homo sapiens) is less than 4.00; with NLRP3 inflammasome (setting [2]) it was 6.74.

For `Cc1cc(C(F)(F)F)cc(O)c1-c1ccc(NC[C@@H](O)C(C)C)nn1` [Ex 90a, (S)-2-(6-((2-Hydroxy-3-methylbutyl)amino)pyridazin-3-yl)-3-methyl-5-(trifluoromethyl)phenol], the pIC50 in experiment [1] (Homo sapiens) was less than 4.48; with NLRP3 inflammasome (setting [2]), 7.19.

Regarding `Cc1cc(C(F)(F)F)cc(O)c1-c1ccc(NC[C@H](O)C(C)C)nn1` [Ex 90b, (R)-2-(6-((2-Hydroxy-3-methylbutyl)amino)pyridazin-3-yl)-3-methyl-5-(trifluoromethyl) phenol], the pIC50 in experiment [1] (Homo sapiens) is less than 4.00; in the experiment with NLRP3 inflammasome (setting [2]), 6.94.

On to `Cc1cc(C(F)(F)F)cc(O)c1-c1ccc(NCC2(O)CCCC2)nn1` [Ex 98, 2-(6-(((1-Hydroxycyclopentyl)methyl)amino)pyridazin-3-yl)-3-methyl-5-(trifluoromethyl)phenol], for which the figures for the negative-log IC50 (pIC50) (in experiment [1] (Homo sapiens); in the experiment on NLRP3 inflammasome (setting [2])) were less than 4.00 and 6.94, respectively.

Consider `Cc1cc(-c2c(C)cc(C(F)(F)F)cc2O)nnc1NC1CCC(=O)N(C)C1` (stereo not shown) [Ex 99, 5-((6-(2-Hydroxy-6-methyl-4-(trifluoromethyl)phenyl)-4-methylpyridazin-3-yl)amino)-1-methylpiperidin-2-one], for which the pIC50 in experiment [1] (Homo sapiens) is less than 4.00; in the experiment on NLRP3 inflammasome (setting [2]), 7.12.

On to `Cc1cc(C)c(-c2ccc(NCCc3ccc(S(N)(=O)=O)cc3)nn2)c(O)c1` [Ex 103, 4-(2-((6-(2-Hydroxy-4,6-dimethylphenyl)pyridazin-3-yl)amino)ethyl)benzenesulfonamide], for which the pIC50 in experiment [1] (Homo sapiens) was 4.80; in the experiment with NLRP3 inflammasome (setting [2]) it was 6.87.

In the case of `Cc1cc(-c2c(C)cc(C(F)(F)F)cc2O)nnc1N[C@@H]1CCC[N+](C)([O-])C1` (stereo partly drawn) [Ex 104, (3R)-3-((6-(2-Hydroxy-6-methyl-4-(trifluoromethyl)phenyl)-4-methylpyridazin-3-yl)amino)-1-methylpiperidine 1-oxide TFA-salt], the pIC50 was less than 4.00 in experiment [1] (Homo sapiens) and 7.23 in the experiment with NLRP3 inflammasome (setting [2]).
